Measured values reported in patent US11029285B2, “Real-time and quantitative measurement method for cell traction force” (HUNAN AGRICULTURAL UNIVERSITY, priority 2016, dated 2021).

Experiments:
Type in all cases: cell-based
[1] = system: human umbilical vein endothelial cells; assay: Double resonator QCM cell traction force of 50,000 HUVECs on bare gold electrodes under EGTA
Source text: (§1) The steps for measuring the cell traction force by using bare gold electrode AT-cut and BT-cut quartz crystals are as follows:
(§2) 4) checking to make sure that the 8-channel QCM instrument QCA922 has crystal resonant frequency and dynamic resistance outputs, connecting detection cells in turn, determining that each detection cell (e.g., two AT-cut crystal detection cells, two BT-cut crystal detection cells) works, and starting the software to acquire data; 5) removing the sterilized water after the data corresponding to each channel is stable, cleaning twice with sterilized water, then cleaning with PBS, add 52 μL of DMEM medium containing fetal bovine serum, and acquiring QCM resonant frequency (f) and dynamic resistance (R) data for 2 h; adding 250 μL of medium containing a certain number (e.g., 20,000) of H9C2 rat cardiomyocytes or human umbilical vein endothelial cells (HUVECs), continuously acquiring f and R data for about 20 h. The QCM relative frequency shift Δf and dynamic resistance change ΔR of each channel caused by the adhesion of cells at different adhesion time are determined by subtracting the corresponding QCM stable values in media of the channel at the time (t). 6) After the experiment, collecting the medium, gently washing with PBS, adding trypsin for digestion, and counting the cells in the collected fraction with a cytometer; 7) Quantitatively measuring the dynamic change ΔS in the cell traction force during the cell adhesion process according to the frequency shifts Δft^AT and Δft^BT of the paired AT-cut and BT-cut quartz crystals at the time t: ΔSt=(KAT−KBT)^−1[tq^ATΔft^AT/fr^AT−tq^BTΔft^BT/fr^BT] (1),
in which, ΔSt is the traction force of cells at the adhesion time t; KAT=2.75×10^−12 cm^2 dyn^−1 and KBT=−2.65×10^−12 cm^2dyn^−1 are stress coefficients of the AT-cut and BT-cut quartz crystals of given crystal orientations, respectively, and are constants. fr^AT and fr^BT are the resonant frequencies of the AT-cut and BT-cut quartz crystals, respectively; tq^AT and tq^BT are the thicknesses of the AT-cut and BT-cut quartz crystals, respectively, and are constants. Therefore, the surface stress or traction force applied to the crystal by cells in the adhesion process or under the action of a drug can be quantitatively measured according to the frequency shifts Δft^AT, Δft^BT (in Hz) of the AT-cut crystal, the BT-cut crystal at any time t relative to its reference point (e.g., a stabile value in the medium or a stabile value before dosing) based on formula (1). The frequency of the quartz crystal is a digital signal, which can be easily, quickly and continuously acquired or measured by a frequency counting device or a QCM special instrument. […]

[2] = system: human umbilical vein endothelial cells; assay: Cell morphology simulation experiments under EGTA; details: after the EGTA treatments for five minutes
[3] = system: H9C2 rat cardiomyocytes; assay: Double resonator QCM (AT-cut/BT-cut) cell traction force of H9C2 rat cardiomyocytes under inotropic drugs; details: 20,000 H9C2 cells on bare gold
Experimental: as §1
1) dripping 1 drop of Piranha solution (80° C. 1:3 (v:v) 30% H2O2:H2SO4) to the center of each quartz crystal gold electrode for about 30 s, then rinsing with distilled water, drying with nitrogen, and repeating this step by 3 times;
2) assembling the crystals in a Teflon well cell;
3) cleaning the Teflon cell twice with distilled water, then adding about 300 μL of sterilized water, and putting into a 5% CO2 incubator at 37° C.;
as §2
(§3) in which, ΔSt is the traction force of cells at the adhesion time t; KAT=2.75×10^−12 cm^2 dyn^−1 and KBT=−2.65×10^−12 cm^2dyn^−1 are stress coefficients of the AT-cut and BT-cut quartz crystals of given crystal orientations, respectively, and are constants. fr^AT and fr^BT are the resonant frequencies of the AT-cut and BT-cut quartz crystals, respectively; tq^AT and tq^BT are the thicknesses of the AT-cut and BT-cut quartz crystals, respectively, and are constants. Therefore, the surface stress or traction force applied to the crystal by cells in the adhesion process or under the action of a drug can be quantitatively measured according to the frequency shifts Δft^AT, Δft^BT (in Hz) of the AT-cut crystal, the BT-cut crystal at any time t relative to its reference point (e.g., a stabile value in the medium or a stabile value before dosing) based on formula (1). The frequency of the quartz crystal is a digital signal, which can be easily, quickly and continuously acquired or measured by a frequency counting device or a QCM special instrument. The crystal frequency used in the experiment of the present disclosure is 9 MHz, where tq^AT=0.0185 cm, and tq^BT=0.0282 cm. Thus, formula (1) can be simplified as: ΔSt=2.058×10^4(0.0185Δft^AT−0.0282Δft^BT) (2)
Experimental Steps for Effects of Cardiovascular Stimulating Drug Isoprenaline (ISO) and Inhibitory Drug Verapamil (VRP) on Traction Force of H9C2 Rat Cardiomyocytes
Take four Teflon well cells, two identical 9 MHz AT-cut gold electrode crystals and two identical 9 MHz BT-cut gold electrode crystals. […]

[4] = system: human umbilical vein endothelial cells; assay: Double resonator QCM cell traction force of HUVECs on bare gold electrodes under thrombin or Y-27632; details: 20,000 HUVECs on bare gold
Source text: as §1, §2, §3
Experimental Steps for Effects for Vascular Endothelial Barrier Function Destruction Drug Thrombin and Protective Drug Y-27632 on Traction Force of Human Umbilical Vein Endothelial Cells
Take four Teflon well cells, two identical 9 MHz AT-cut gold electrode crystals and two identical 9 MHz BT-cut gold electrode crystals. Based on the aforementioned steps of measuring the cell traction force with bare gold electrode AT-cut and BT-cut quartz crystals, add 300 μL DMEM medium to the four Teflon cells respectively, and collect data for about 2 h; add 300 μL of mediums containing 20,000 human umbilical vein endothelial cells respectively, collect data for about 24 h, then add the drugs thrombin and Y-27632 to the final concentrations, and continue to collect data for about 24 h.

[5] = system: human umbilical vein endothelial cells; assay: Double resonator QCM cell traction force of HUVECs on KRGD or fibronectin modified crystals under blebbistatin or nocodazole; details: 20,000 HUVECs
Experimental: (§4) The Steps for Measuring the Cell Traction Force with AT-Cut and BT-Cut Quartz Crystals Modified with Specific Cell Adhesion Molecules RGD and Fibronectin are as Follows:
(§5) 1) cleaning with anhydrous ethanol and Millipore water, and blowing AT-cut and BT-cut 9 MHz crystals with nitrogen;
2) dripping 1 drop of Piranha solution (80° C. 1:3 (v:v) 30% H2O2:H2SO4) to the quartz crystal gold electrode for treating 30 s, rinsing with Millipore water and anhydrous ethanol, blowing with nitrogen, and repeating 3 times. […] Adding 20,000 HUVEC or H9C2 cells, and starting QCM for monitoring; 8) collecting the medium after the experiment, gently wash with PBS, adding trypsin for digestion, and measuring the cells in the collected fraction with a cytometer; and 9) Quantitatively estimating the dynamic change ΔS in the cell traction force during the cell adhesion process according to the frequency shifts Δft^AT and Δft^BT of the AT-cut and BT-cut quartz crystals modified with the same concentration of RGD or fibronectin at the time t based on formula (2). […]

[6] = system: human umbilical vein endothelial cells; assay: QCM response and cell traction force during adhesion of HUVECs to fibronectin modified gold electrodes
Experimental: as §4, §5
2) dripping 1 drop of Piranha solution (80° C. 1:3 (v:v) 30% H2O2:H2SO4) to the quartz crystal gold electrode for treating 30 s, rinsing with Millipore water and anhydrous ethanol, blowing with nitrogen, and repeating 3 times. Dripping the anhydrous ethanol onto the electrode to stand for a few minutes, rinsing with sterile water, and blowing with nitrogen; 3) installing the surface treated AT-cut and BT-cut quartz crystals into Teflon well cells; 4) adding a mixed anhydrous ethanol solution of 20 mM 3-mercaptopropionic acid and 1 mM triethylene glycol mono-11-mercaptoundecyl ether to the Teflon cell at room temperature, and standing overnight in the dark; 5) taking out the solution, and rinsing with sterile water; adding a PBS buffer solution (pH=5.5) with 150 mM EDC and 30 mM NHS dissolved therein, and standing for about 30 min; 6) taking out the solution, and rinsing with PBS buffer solution (pH=5.5) and sterile water; adding a PBS solution of KRGD or fibronectin of different concentrations, and standing for 1-2 h (RGDK) or overnight (fibronectin); 7) taking out the solution, and rinsing with sterilized PBS and sterile water to obtain KRGD or fibronectin modified gold electrodes. Adding 20,000 HUVEC or H9C2 cells, and starting QCM for monitoring; 8) collecting the medium after the experiment, gently wash with PBS, adding trypsin for digestion, and measuring the cells in the collected fraction with a cytometer; and 9) Quantitatively estimating the dynamic change ΔS in the cell traction force during the cell adhesion process according to the frequency shifts Δft^AT and Δft^BT of the AT-cut and BT-cut quartz crystals modified with the same concentration of RGD or fibronectin at the time t based on formula (2).
However, as the adhesion time increases, the surface of the electrode may adsorb adherent factors beneficial to cell adhesion and extracellular matrix factors secreted by the cells, so that ΔS changes positively, and the cells are gradually spread and are finally close to the value of the cell traction force on the gold electrode modified at the low FN concentration (10 μg/mL).

[7] = electrode modified at 30 μg/mL, 40 μg/mL FN

Compound: O=C(O)CN(CCOCCOCCN(CC(=O)O)CC(=O)O)CC(=O)O [EGTA]
- cell traction force in the initial phase ([1]; 1 mM EGTA): did not decrease but increase slightly
- cell generated force with the increase of EGTA time ([1]; 10 mM EGTA): decreases
- cell generated force with the increase of EGTA time ([1]; 50 mM EGTA, compared with 10 mM): decreases more quickly
- overall cell traction force ([1]; after different concentrations of EGTA (1, 10, 50 mM) are added): shows a tendency to decrease
- cell spreading area [2]: became smaller

Compound: CC(C)NCC(O)c1ccc(O)c(O)c1 (stereo not shown) [ISO, isoprenaline]
- QCM frequency f of AT-cut and BT-cut crystals ([3]; ISO final concentration 125 nM): decreased
- cell traction force ΔS ([3]; ISO final concentration 125 nM): decreases and changes negatively
- dynamic resistance R of AT-cut and BT-cut crystals ([3]; ISO final concentration 125 nM): increased

Compound: COc1ccc(CCN(C)CCCC(C#N)(c2ccc(OC)c(OC)c2)C(C)C)cc1OC (stereo not shown) [VRP, verapamil]
- QCM frequency f of AT-cut and BT-cut crystals ([3]; VRP final concentration 25 nM): increased
- cell traction force ΔS ([3]; VRP final concentration 25 nM): increases and changes positively
- dynamic resistance R of AT-cut and BT-cut crystals ([3]; VRP final concentration 25 nM): decreased

Compound: C[C@@H](N)[C@H]1CC[C@H](C(=O)Nc2ccncc2)CC1 [Y-27632]
- cell traction force ([4]; 0.5 μM Y-27632): decreases
- dynamic resistance ([4]; 0.5 μM Y-27632): decreases
- frequency shift of the crystals ([4]; 0.5 μM Y-27632): decreases

Compound: Cc1ccc2c(c1)C(=O)C1(O)CCN(c3ccccc3)C1=N2 (stereo not shown) [blebbistatin]
- cell traction force ΔS ([5]; crystals modified at 50 μg/mL KRGD, 1.22 μM blebbistatin): decreases

Compound: COC(=O)Nc1nc2ccc(C(=O)c3cccs3)cc2[nH]1 [nocodazole]
- cell traction force ΔS ([5]; crystals modified at 20 μg/mL fibronectin, 0.5 μM nocodazole): increases at the beginning and then decreases

Compound: fibronectin [FN]
- cell traction force ΔS (sign) ([6]; 20,000 HUVECs, gold electrode modified with FN, DMEM with 2% fetal bovine serum): positive
- cell traction force, compared among FN concentrations ([6]; electrode modified at 10 μg/mL FN): close and the least
- ΔS, compared among FN concentrations ([6]; electrode modified at 20 μg/mL FN, tested 0, 10, 20, 30, 40, 50 μg/mL): maximum and stable
- QCM frequency shift and dynamic resistance change responses, compared among FN concentrations [6, 7]: medium
- ΔS response over time [6, 7]: increases fastest at the beginning, but fluctuates with time and attenuates to some extent
- cell traction force, compared among FN concentrations ([6]; electrode modified at 50 μg/mL FN): close and the least

Compound: thrombin
- cell traction force ([4]; 0.1 unit/mL thrombin): increases
- dynamic resistance ([4]; 0.1 unit/mL thrombin): increases slightly
- frequency shift of the crystals ([4]; 0.1 unit/mL thrombin): decreases
